Data from article PMC9894920, “Development of an improved and specific inhibitor of NADPH oxidase 2 to treat traumatic brain injury” (Redox Biology, 2023).
Values after ≈ are worked out from the molar mass of the structure shown. Read-outs that look alike come from different tables or passages of the source.

What was measured:
[1] = target: T1, Bovine Xanthine Oxidase (Bos taurus, UniProt P80457); assay: Xanthine oxidase / hypoxanthine luminol chemiluminescence assay; format: biochemical; details: xanthine oxidase with hypoxanthine; mean ± SD, n in cell; read-out: X/XO IC50
T1 construct: purchased Sigma
Procedure: Bovine Xanthine Oxidase (Sigma) was dialyzed in PBS to remove ammonium sulfate and stored at 4 °C. Hypoxanthine was prepared by heating in DMSO. Reactions were prepared by diluting xanthine oxidase in HBSS (final concentration 1.25 mU/mL) that contained 50 μM luminol and were preincubated 5 min with control or inhibitor before the addition of hypoxanthine at a final concentration of 0.5 mM. Luminescence was measured at 24 °C as described above.

[2] = Parallel artificial membrane permeability assay (PAMPA); format: in vitro ADME; details: for Papp: pH 7.4, PAMPA, pH7.4, read-out: Permeability(pH7.4) (PAMPA_Pion_Lipid 1e-6 cm/s)
Procedure: (§1) The rat liver microsomal stability, parallel artificial membrane permeability assay (PAMPA), and aqueous kinetic solubility assay in phosphate-buffered saline (PBS) buffer were performed as described in the indicated references.

[3] = target: T2, NOX2 (Homo sapiens, UniProt P04839); assay: NOX2 activity in primary human granulocytes (PMN), luminol chemiluminescence; format: cell-based; design: When tested against NOX2 in primary human neutrophils; endogenous in cells; host or cells: primary human granulocytes (PMN) from donor blood; details: mean ± SD, n in cell; read-out: NOX-2 IC50 from PMN
T2 sequence (P04839 2-570 limits assumed): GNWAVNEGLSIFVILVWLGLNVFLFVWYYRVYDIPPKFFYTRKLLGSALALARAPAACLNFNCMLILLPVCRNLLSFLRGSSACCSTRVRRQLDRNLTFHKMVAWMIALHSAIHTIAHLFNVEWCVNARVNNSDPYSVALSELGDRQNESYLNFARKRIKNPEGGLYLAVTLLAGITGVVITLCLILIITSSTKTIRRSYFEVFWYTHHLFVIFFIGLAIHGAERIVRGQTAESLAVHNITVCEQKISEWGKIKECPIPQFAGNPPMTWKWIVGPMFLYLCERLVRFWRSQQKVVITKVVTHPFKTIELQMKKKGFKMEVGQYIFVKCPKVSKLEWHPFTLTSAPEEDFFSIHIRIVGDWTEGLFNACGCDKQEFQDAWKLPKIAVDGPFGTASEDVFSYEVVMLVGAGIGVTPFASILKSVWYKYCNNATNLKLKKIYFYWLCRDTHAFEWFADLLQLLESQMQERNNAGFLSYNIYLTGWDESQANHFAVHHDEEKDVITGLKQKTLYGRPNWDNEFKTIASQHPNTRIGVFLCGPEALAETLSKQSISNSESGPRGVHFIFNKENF
T2 sequence (P13498 2-195 partner limits assumed): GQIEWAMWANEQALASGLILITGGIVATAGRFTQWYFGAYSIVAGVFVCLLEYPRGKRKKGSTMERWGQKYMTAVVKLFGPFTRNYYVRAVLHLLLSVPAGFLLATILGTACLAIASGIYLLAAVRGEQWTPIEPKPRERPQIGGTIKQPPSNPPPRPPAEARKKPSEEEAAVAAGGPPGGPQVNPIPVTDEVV
Procedure: Human blood was obtained after informed consent by the Department of Transfusion Medicine (NIH Clinical Center) and provided as de-identified specimens. Human granulocytes were isolated using Percoll density fractionation as described and NOX2 activity was assessed in white polypropylene flat bottom 96 well plates following 15 min of preincubation at 37 °C with compounds or vehicle controls using 50 μM luminol as a chemiluminescence enhancer in an assay volume of 100 μl RPMI1640 with 1.1 × 10^5 cells/well in Varioskan Lux luminometer for 30 cycles of 1 s per well (approximately 1 h).

[4] = Aqueous kinetic solubility in PBS buffer; format: physicochemical
Procedure: as §1

[5] = Rat liver microsomal stability; format: in vitro ADME; details: for half-life: SD, rat, liver microsomes, read-out: Rat_SD/Microsomes t1/2 (m)
Procedure: as §1

[6] = aqueous buffer, kinetic from dmso stock, read-out: Solubility

T1 sequence (P80457 whole entry): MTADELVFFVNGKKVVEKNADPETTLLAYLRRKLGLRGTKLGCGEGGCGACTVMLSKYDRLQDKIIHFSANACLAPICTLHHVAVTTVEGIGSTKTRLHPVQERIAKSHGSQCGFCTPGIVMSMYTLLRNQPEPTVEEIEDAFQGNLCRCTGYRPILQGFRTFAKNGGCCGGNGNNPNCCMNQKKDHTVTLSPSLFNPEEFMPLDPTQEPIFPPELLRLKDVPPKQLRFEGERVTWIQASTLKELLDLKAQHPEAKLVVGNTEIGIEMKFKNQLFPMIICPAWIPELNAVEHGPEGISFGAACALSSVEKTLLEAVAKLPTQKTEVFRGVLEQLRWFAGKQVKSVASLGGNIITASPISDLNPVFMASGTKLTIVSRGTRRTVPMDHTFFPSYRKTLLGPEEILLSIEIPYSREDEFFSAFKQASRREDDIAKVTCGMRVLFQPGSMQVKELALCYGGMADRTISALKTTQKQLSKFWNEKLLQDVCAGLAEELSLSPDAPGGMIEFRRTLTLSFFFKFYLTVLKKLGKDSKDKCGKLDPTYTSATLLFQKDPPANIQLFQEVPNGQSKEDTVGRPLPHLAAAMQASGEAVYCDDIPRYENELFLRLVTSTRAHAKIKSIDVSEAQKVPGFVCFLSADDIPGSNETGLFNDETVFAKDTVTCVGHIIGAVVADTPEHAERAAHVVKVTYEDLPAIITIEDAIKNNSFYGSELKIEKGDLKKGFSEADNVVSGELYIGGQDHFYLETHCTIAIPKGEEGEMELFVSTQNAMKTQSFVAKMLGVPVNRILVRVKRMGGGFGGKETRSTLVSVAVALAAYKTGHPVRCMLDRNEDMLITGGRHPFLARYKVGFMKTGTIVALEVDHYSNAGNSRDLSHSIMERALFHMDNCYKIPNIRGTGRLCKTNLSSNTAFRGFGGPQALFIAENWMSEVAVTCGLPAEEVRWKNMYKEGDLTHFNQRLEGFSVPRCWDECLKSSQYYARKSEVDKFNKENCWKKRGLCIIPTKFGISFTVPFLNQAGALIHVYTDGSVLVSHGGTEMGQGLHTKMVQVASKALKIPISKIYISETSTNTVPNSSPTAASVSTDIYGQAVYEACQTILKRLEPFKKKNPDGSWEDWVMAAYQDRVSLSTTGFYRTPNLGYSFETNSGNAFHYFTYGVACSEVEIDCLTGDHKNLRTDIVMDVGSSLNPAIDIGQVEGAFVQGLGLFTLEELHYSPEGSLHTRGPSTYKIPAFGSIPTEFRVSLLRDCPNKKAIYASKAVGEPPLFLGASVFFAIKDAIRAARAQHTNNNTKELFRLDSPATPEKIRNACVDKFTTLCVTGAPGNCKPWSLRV

Cn1ccc([S+](=O)([O-])Nc2ccnc3c2c(-c2ccc4c(c2)N(C2CC2)CC4)cn3CC2CCCCC2)n1 [NCGC00650102, CN1C=CC(=N1)[S+]([O-])(=O)NC2=C3C(=CN(CC4CCCCC4)C3=NC=C2)C5=CC6=C(CCN6C7CC7)C=C5]
IC50 [1]: 4070 ± 5430 nM
Papp [2]: 160 ×10⁻⁶ cm/s
IC50 [3]: 2050 nM
solubility [4, 6]: 5.3 µg/mL (≈ 9.99 µM)

Cn1ccc([S+](=O)([O-])Nc2ccnc3c2c(-c2ccc4c(c2)C(N)CC4)cn3C2CC2)n1 (centres unmarked) [NCGC00650025, CN1C=CC(=N1)[S+]([O-])(=O)NC2=C3C(=CN(C4CC4)C3=NC=C2)C5=CC6=C(CCC6N)C=C5]
IC50 [1]: > 20000 nM
Papp [2]: 13 ×10⁻⁶ cm/s
IC50 [3]: 447 nM
solubility [4, 6]: 24 µg/mL (≈ 53.5 µM)
half-life [5]: 14.5 min

Cn1ccc([S+](=O)([O-])Nc2ccnc3c2c(-c2ccc4ccn(C)c4c2)cn3C2CC2)n1 [NCGC00650045, CN1C=CC(=N1)[S+]([O-])(=O)NC2=C3C(=CN(C4CC4)C3=NC=C2)C5=CC6=C(C=CN6C)C=C5]
IC50 [3]: > 20000 nM
solubility [4, 6]: 2.2 µg/mL (≈ 4.93 µM)
half-life [5]: 1 min

Cn1ccc([S+](=O)([O-])Nc2ccnc3c2c(-c2ccc4c(c2)N(C2CC2)CC4)cn3CC2CC2)n1 [NCGC00650063, CN1C=CC(=N1)[S+]([O-])(=O)NC2=C3C(=CN(CC4CC4)C3=NC=C2)C5=CC6=C(CCN6C7CC7)C=C5]
IC50 [1]: 360 ± 510 nM
Papp [2]: 1230 ×10⁻⁶ cm/s
IC50 [3]: 3020 ± 2960 nM
solubility [4, 6]: 1.4 µg/mL (≈ 2.87 µM)
half-life [5]: 1.1 min

Cn1ccc([S+](=O)([O-])Nc2ccnc3c2c(-c2ccc4c(c2)C(NC(=O)OC(C)(C)C)CC4)cn3C2CC2)n1 (centres unmarked) [NCGC00650021, CN1C=CC(=N1)[S+]([O-])(=O)NC2=C3C(=CN(C4CC4)C3=NC=C2)C5=CC6=C(CCC6NC(=O)OC(C)(C)C)C=C5]
IC50 [1]: 4430 nM
Papp [2]: 1940 ×10⁻⁶ cm/s
IC50 [3]: 2420 nM
solubility [4, 6]: 26.2 µg/mL (≈ 47.8 µM)
half-life [5]: 5.7 min

CC(C)n1cc(-c2ccc3c(c2)N(C)CC3)c2c(N[S+](=O)([O-])c3ccn(C)n3)ccnc21 [NCGC00507962, CC(C)[N]1C=C(C2=CC3=C(CCN3C)C=C2)C4=C(N[S+]([O-])(=O)C5=N[N](C)C=C5)C=CN=C14]
Papp [2]: 1030 ×10⁻⁶ cm/s
solubility [4, 6]: 36.7 µg/mL (≈ 81.5 µM)
half-life [5]: 1.1 min

CCn1cc(-c2ccc3c(c2)N(C2CC2)CC3)c2c(N[S+](=O)([O-])c3ccn(C)n3)ccnc21 [NCGC00650067, CCN1C=C(C2=C(N[S+]([O-])(=O)C3=NN(C)C=C3)C=CN=C12)C4=CC5=C(CCN5C6CC6)C=C4]
IC50 [1]: 7610 ± 10200 nM
Papp [2]: 819 ×10⁻⁶ cm/s
IC50 [3]: 2400 ± 2260 nM
solubility [4, 6]: 13.9 µg/mL (≈ 30 µM)
half-life [5]: 1 min

Cn1ccc([S+](=O)([O-])Nc2ccnc3c2c(-c2ccc4c(c2)C(=O)CC4)cn3C2CC2)n1 [NCGC00650062, CN1C=CC(=N1)[S+]([O-])(=O)NC2=C3C(=CN(C4CC4)C3=NC=C2)C5=CC6=C(CCC6=O)C=C5]
IC50 [1]: 3110 nM
Permeability(pH7.4) (PAMPA_Pion_Lipid 1e-6 cm/s) [2]: 88.1 1e-6 cm/s
IC50 [3]: > 20000 nM
solubility [4]: 38.6 µg/mL (≈ 86.3 µM)
Rat_SD/Microsomes t1/2 (m) [5]: 17.3 m

O=[S+]([O-])(Nc1ccnc2c1c(-c1ccc3c(c1)N(C1CC1)CC31CC1)cn2C1CC1)c1ccn(C2CC2)n1 [NCGC00650101, [O-][S+](=O)(NC1=C2C(=CN(C3CC3)C2=NC=C1)C4=CC5=C(C=C4)C6(CC6)CN5C7CC7)C8=NN(C=C8)C9CC9]
IC50 [1]: 1220 ± 320 nM
Papp [2]: 81.8 ×10⁻⁶ cm/s
IC50 [3]: 11600 ± 8720 nM
solubility [4, 6]: 36.8 µg/mL (≈ 69.9 µM)
half-life [5]: 1.2 min

Cn1ccc([S+](=O)([O-])Nc2ccnc3c2c(-c2ccc4c(c2)N(C2CC2)CC4)cn3CC2CCOCC2)n1 [NCGC00650068, CN1C=CC(=N1)[S+]([O-])(=O)NC2=C3C(=CN(CC4CCOCC4)C3=NC=C2)C5=CC6=C(CCN6C7CC7)C=C5]
IC50 [1]: 2300 nM
Papp [2]: 907 ×10⁻⁶ cm/s
IC50 [3]: 11800 nM
solubility [4, 6]: 13.1 µg/mL (≈ 24.6 µM)
half-life [5]: 0.9 min

CC(n1cc(-c2ccc3c(c2)N(C)CC3)c2c(N[S+](=O)([O-])c3ccn(C)n3)ccnc21)C(F)(F)F (centres unmarked) [NCGC00600887, CC(N1C=C(C2=C(N[S+]([O-])(=O)C3=NN(C)C=C3)C=CN=C12)C4=CC5=C(CCN5C)C=C4)C(F)(F)F]
IC50 [1]: 872 nM
Papp [2]: 629 ×10⁻⁶ cm/s
IC50 [3]: 541 nM
solubility [4, 6]: 21.9 µg/mL (≈ 43.4 µM)
half-life [5]: 3.3 min

O=[S+]([O-])(Nc1ccnc2c1c(-c1ccc3c(c1)C(O)CC3)cn2C1CC1)c1ccn(C2CC2)n1 (centres unmarked) [NCGC00650064, OC1CCC2=C1C=C(C=C2)C3=CN(C4CC4)C5=NC=CC(N[S+]([O-])(=O)C6=NN(C=C6)C7CC7)=C35]
IC50 [1]: > 20000 nM
Papp [2]: 386 ×10⁻⁶ cm/s
solubility [4, 6]: 35.9 µg/mL (≈ 75.5 µM)
half-life [5]: 6.9 min

CN1CCc2ccc(-c3cn(C4CC4)c4nccc(N[S+](=O)([O-])c5ccn(C)n5)c34)cc21 [NCGC00600897, CN1C=CC(=N1)[S+]([O-])(=O)NC2=C3C(=CN(C4CC4)C3=NC=C2)C5=CC6=C(CCN6C)C=C5]
IC50 [1]: 1380 ± 1160 nM
Papp [2]: 171 ×10⁻⁶ cm/s
solubility [4, 6]: > 66 µg/mL
half-life [5]: 1.7 min

Cn1ccc([S+](=O)([O-])Nc2ccnc3c2c(-c2ccc4c(c2)NCC4)cn3C2CC2)n1 [NCGC00601851, CN1C=CC(=N1)[S+]([O-])(=O)NC2=C3C(=CN(C4CC4)C3=NC=C2)C5=CC6=C(CCN6)C=C5]
IC50 [1]: 7520 ± 10500 nM
Papp [2]: 191 ×10⁻⁶ cm/s
IC50 [3]: 1530 ± 1360 nM
solubility [4, 6]: > 64 µg/mL
half-life [5]: 4.5 min

Cn1ccc([S+](=O)([O-])Nc2ccnc3c2c(-c2ccc4c(c2)N(C2CC2)C(=O)C42CC2)cn3C2CC2)n1 [NCGC00650040, CN1C=CC(=N1)[S+]([O-])(=O)NC2=C3C(=CN(C4CC4)C3=NC=C2)C5=CC6=C(C=C5)C7(CC7)C(=O)N6C8CC8]
IC50 [1]: 4210 ± 550 nM
Papp [2]: 249 ×10⁻⁶ cm/s
IC50 [3]: 15200 nM
solubility [4, 6]: 22.9 µg/mL (≈ 44.5 µM)
half-life [5]: > 30 min

CC(n1cc(-c2ccc3ccn(C)c3c2)c2c(N[S+](=O)([O-])c3ccn(C)n3)ccnc21)C(F)(F)F (centres unmarked) [NCGC00600714, CC(N1C=C(C2=C(N[S+]([O-])(=O)C3=NN(C)C=C3)C=CN=C12)C4=CC5=C(C=CN5C)C=C4)C(F)(F)F]
IC50 [1]: 4700 nM
Papp [2]: 479 ×10⁻⁶ cm/s
IC50 [3]: 328 nM
solubility [4, 6]: < 1 µg/mL
half-life [5]: 7.7 min

O=C1CCc2ccc(-c3cn(C4CC4)c4nccc(N[S+](=O)([O-])c5ccn(C6CC6)n5)c34)cc21 [NCGC00650070, [O-][S+](=O)(NC1=C2C(=CN(C3CC3)C2=NC=C1)C4=CC5=C(CCC5=O)C=C4)C6=NN(C=C6)C7CC7]
Papp [2]: 256 ×10⁻⁶ cm/s
IC50 [3]: 966 nM
solubility [4, 6]: 38.5 µg/mL (≈ 81.3 µM)
half-life [5]: 13.2 min

O=C1N(C2CC2)c2cc(-c3cn(C4CC4)c4nccc(N[S+](=O)([O-])c5ccn(C6CC6)n5)c34)ccc2C12CC2 [NCGC00650041, [O-][S+](=O)(NC1=C2C(=CN(C3CC3)C2=NC=C1)C4=CC5=C(C=C4)C6(CC6)C(=O)N5C7CC7)C8=NN(C=C8)C9CC9]
IC50 [1]: 180 nM
Papp [2]: 615 ×10⁻⁶ cm/s
solubility [4, 6]: 2 µg/mL (≈ 3.7 µM)
half-life [5]: 6.2 min

Cn1ccc([S+](=O)([O-])Nc2ccnc3c2c(-c2ccc4c(c2)N(C(=O)OC(C)(C)C)CC4)cn3C2CC2)n1 [NCGC00650103, CN1C=CC(=N1)[S+]([O-])(=O)NC2=C3C(=CN(C4CC4)C3=NC=C2)C5=CC6=C(CCN6C(=O)OC(C)(C)C)C=C5]
IC50 [1]: > 20000 nM
IC50 [3]: 3930 nM
solubility [4, 6]: 8.2 µg/mL (≈ 15.3 µM)
half-life [5]: 4.6 min

O=C1CCc2ccc(-c3cn(C4CC4)c4nccc(N[S+](=O)([O-])c5ccn(C6CC6)n5)c34)cc21 [NCGC00650069, [O-][S+](=O)(NC1=C2C(=CN(C3CC3)C2=NC=C1)C4=CC5=C(CCC5=O)C=C4)C6=NN(C=C6)C7CC7]
Permeability(pH7.4) (PAMPA_Pion_Lipid 1e-6 cm/s) [2]: 188.5 1e-6 cm/s
IC50 [3]: 1780 nM
solubility [4]: 30 µg/mL (≈ 63.4 µM)
Rat_SD/Microsomes t1/2 (m) [5]: 16 m
